# Test results reported in PMC9732253, “Inhibition of the Phosphatidylinositol-3 Kinase Pathway Using Bimiralisib in Loss-of-Function NOTCH1-Mutant Head and Neck Cancer” (The Oncologist, 2022).
# Settings: n = 8
# Protocol: All patients received 140 mg bimiralisib (PQR309) orally once daily on 2 consecutive days followed by 5 days without treatment weekly until unacceptable toxicity, tumor progression, patient request for withdrawal, investigator judgment, or death.
# Radiologic tumor assessments were performed using computed tomography at baseline and every 6 weeks. Safety was continuously monitored.
structure (smiles),measurement,value
"Nc1cc(C(F)(F)F)c(-c2nc(N3CCOCC3)nc(N3CCOCC3)n2)cn1 [Bimiralisib, 5-(4,6-dimorpholino-1,3,5-triazin-2-yl)-4-(trifluoromethyl)pyridin-2-amine]","Chest pain, Grade 3/4, patients",0 n (%)
same,"Chest pain, Grade 3/4, total number of events",0
same,"Confusional state, Grade 1, patients",2 (25.0) n (%)
same,"Confusional state, Grade 1, total number of events",2
same,"Confusional state, Grade 2, patients",0 n (%)
same,"Confusional state, Grade 2, total number of events",0
same,"Confusional state, Grade 3/4, patients",0 n (%)
same,"Confusional state, Grade 3/4, total number of events",0
same,"Cough, Grade 1, patients",1 (12.5) n (%)
same,"Cough, Grade 1, total number of events",1
same,"Cough, Grade 2, patients",0 n (%)
same,"Cough, Grade 2, total number of events",0
same,"Cough, Grade 3/4, patients",0 n (%)
same,"Cough, Grade 3/4, total number of events",0
same,"Decreased appetite, Grade 1, patients",0 n (%)
same,"Decreased appetite, Grade 1, total number of events",0
same,"Decreased appetite, Grade 2, patients",1 (12.5) n (%)
same,"Decreased appetite, Grade 2, total number of events",1
same,"Decreased appetite, Grade 3/4, patients",0 n (%)
same,"Decreased appetite, Grade 3/4, total number of events",0
same,"Dehydration, Grade 1, patients",0 n (%)
same,"Dehydration, Grade 1, total number of events",0
same,"Dehydration, Grade 2, patients",1 (12.5) n (%)
same,"Dehydration, Grade 2, total number of events",1
same,"Dehydration, Grade 3/4, patients",0 n (%)
same,"Dehydration, Grade 3/4, total number of events",0
same,"Diarrhea, Grade 1, patients",0 n (%)
same,"Diarrhea, Grade 1, total number of events",0
same,"Diarrhea, Grade 2, patients",1 (12.5) n (%)
same,"Diarrhea, Grade 2, total number of events",1
same,"Diarrhea, Grade 3/4, patients",0 n (%)
same,"Diarrhea, Grade 3/4, total number of events",0
same,"Disease progression, Grade 1, patients",0 n (%)
same,"Disease progression, Grade 1, total number of events",0
same,"Disease progression, Grade 2, patients",0 n (%)
same,"Disease progression, Grade 2, total number of events",0
same,"Disease progression, Grade 3/4, patients",1 (12.5) n (%)
same,"Disease progression, Grade 3/4, total number of events",1
same,"Dry skin, Grade 1, patients",1 (12.5) n (%)
same,"Dry skin, Grade 1, total number of events",1
same,"Dry skin, Grade 2, patients",0 n (%)
same,"Dry skin, Grade 2, total number of events",0
same,"Dry skin, Grade 3/4, patients",0 n (%)
same,"Dry skin, Grade 3/4, total number of events",0
same,"Dysarthria, Grade 1, patients",1 (12.5) n (%)
same,"Dysarthria, Grade 1, total number of events",1
same,"Dysarthria, Grade 2, patients",0 n (%)
same,"Dysarthria, Grade 2, total number of events",0
same,"Dysarthria, Grade 3/4, patients",0 n (%)
same,"Dysarthria, Grade 3/4, total number of events",0
same,"Ear and labyrinth disorders, Grade 1, patients",2 (25.0) n (%)
same,"Ear and labyrinth disorders, Grade 1, total number of events",2
same,"Ear and labyrinth disorders, Grade 2, patients",0 n (%)
same,"Ear and labyrinth disorders, Grade 2, total number of events",0
same,"Ear and labyrinth disorders, Grade 3/4, patients",0 n (%)
same,"Ear and labyrinth disorders, Grade 3/4, total number of events",0
same,"Ear pain, Grade 1, patients",1 (12.5) n (%)
same,"Ear pain, Grade 1, total number of events",1
same,"Ear pain, Grade 2, patients",0 n (%)
same,"Ear pain, Grade 2, total number of events",0
same,"Ear pain, Grade 3/4, patients",0 n (%)
same,"Ear pain, Grade 3/4, total number of events",0
same,"Eye disorder, Grade 1, patients",1 (12.5) n (%)
same,"Eye disorder, Grade 1, total number of events",1
same,"Eye disorder, Grade 2, patients",0 n (%)
same,"Eye disorder, Grade 2, total number of events",0
same,"Eye disorder, Grade 3/4, patients",0 n (%)
same,"Eye disorder, Grade 3/4, total number of events",0
same,"Eye disorders, Grade 1, patients",1 (12.5) n (%)
same,"Eye disorders, Grade 1, total number of events",1
same,"Eye disorders, Grade 2, patients",0 n (%)
same,"Eye disorders, Grade 2, total number of events",0
same,"Eye disorders, Grade 3/4, patients",0 n (%)
same,"Eye disorders, Grade 3/4, total number of events",0
same,"Fatigue, Grade 1, patients",2 (25.0) n (%)
same,"Fatigue, Grade 1, total number of events",2
same,"Fatigue, Grade 2, patients",1 (12.5) n (%)
same,"Fatigue, Grade 2, total number of events",1
same,"Fatigue, Grade 3/4, patients",0 n (%)
same,"Fatigue, Grade 3/4, total number of events",0
same,"Gait disturbance, Grade 1, patients",1 (12.5) n (%)
same,"Gait disturbance, Grade 1, total number of events",1
same,"Gait disturbance, Grade 2, patients",0 n (%)
same,"Gait disturbance, Grade 2, total number of events",0
same,"Gait disturbance, Grade 3/4, patients",0 n (%)
same,"Gait disturbance, Grade 3/4, total number of events",0
same,"Gastroesophageal reflux disease, Grade 1, patients",1 (12.5) n (%)
same,"Gastroesophageal reflux disease, Grade 1, total number of events",1
same,"Gastroesophageal reflux disease, Grade 2, patients",0 n (%)
same,"Gastroesophageal reflux disease, Grade 2, total number of events",0
same,"Gastroesophageal reflux disease, Grade 3/4, patients",0 n (%)
same,"Gastroesophageal reflux disease, Grade 3/4, total number of events",0
same,"Gastrointestinal disorders, Grade 1, patients",2 (25.0) n (%)
same,"Gastrointestinal disorders, Grade 1, total number of events",2
same,"Gastrointestinal disorders, Grade 2, patients",3 (37.5) n (%)
same,"Gastrointestinal disorders, Grade 2, total number of events",5
same,"Gastrointestinal disorders, Grade 3/4, patients",0 n (%)
same,"Gastrointestinal disorders, Grade 3/4, total number of events",0
same,"General disorders and administration site conditions, Grade 1, patients",5 (62.5) n (%)
